The results in this text go back to US20150239905A1, “IMIDAZOPYRIDINE COMPOUNDS” (Proximagen Limited, priority 2008, published 2015).

pIC50: −log10 of the molar value.

The assay addresses T1, purified recombinantly expressed human SSAO (Homo sapiens, UniProt Q16853).
T1 construct: made in house
T1 sequence (Q16853 29-763 limits assumed): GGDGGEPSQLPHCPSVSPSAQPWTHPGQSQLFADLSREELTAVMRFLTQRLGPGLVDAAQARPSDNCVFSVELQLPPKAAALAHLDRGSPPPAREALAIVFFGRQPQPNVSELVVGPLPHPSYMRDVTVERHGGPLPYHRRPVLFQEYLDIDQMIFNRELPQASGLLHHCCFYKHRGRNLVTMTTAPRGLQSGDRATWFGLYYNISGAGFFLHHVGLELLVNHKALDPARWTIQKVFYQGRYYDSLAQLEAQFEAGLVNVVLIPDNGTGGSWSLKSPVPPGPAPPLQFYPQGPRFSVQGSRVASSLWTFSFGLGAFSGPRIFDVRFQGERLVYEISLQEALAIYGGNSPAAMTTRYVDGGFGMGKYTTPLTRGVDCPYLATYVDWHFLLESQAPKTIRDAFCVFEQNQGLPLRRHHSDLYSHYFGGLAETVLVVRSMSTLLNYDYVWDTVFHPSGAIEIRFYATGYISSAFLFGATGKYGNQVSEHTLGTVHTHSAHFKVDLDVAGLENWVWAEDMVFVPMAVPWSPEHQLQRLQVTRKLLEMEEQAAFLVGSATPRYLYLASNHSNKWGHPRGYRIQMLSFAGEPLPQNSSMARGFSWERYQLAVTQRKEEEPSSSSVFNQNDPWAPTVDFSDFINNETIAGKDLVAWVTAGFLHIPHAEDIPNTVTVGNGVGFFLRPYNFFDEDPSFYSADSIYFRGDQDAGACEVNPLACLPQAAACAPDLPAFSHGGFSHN
In words: SSAO enzyme inhibition assay (benzylamine substrate; hydrogen peroxide/HRP-coupled or 14C-benzaldehyde detection). Particulars: human recombinant SSAO, benzylamine as substrate, rt. The format is biochemical. On the procedure: All primary assays were performed in rt with purified recombinantly expressed human SSAO. Enzyme was prepared essentially as described in Öhman et al. (Protein Expression and Purification 46 (2006) 321-331). In addition, secondary- and selectivity assays were performed using SSAO prepared from various tissues or purified rat recombinant SSAO. The enzyme activity was assayed with benzylamine as substrate by measuring either benzaldehyde production, using ^14C-labeled substrate, or by utilizing the production of hydrogen peroxide in a horseradish peroxidise (HRP) coupled reaction. Briefly, test compounds were dissolved in dimethyl sulfoxide (DMSO) to a concentration of 10 mM. Dose-response measurements were assayed by either creating 1:10 serial dilutions in DMSO to produce a 7 point curve or by making 1:3 serial dilutions in DMSO to produce 11 point curves. The top concentrations were adjusted depending on the potency of the compounds and subsequent dilution in reaction buffer yielded a final DMSO concentration≦2%.
In a horseradish peroxidise (HRP) coupled reaction, hydrogen peroxide oxidation of 10-acetyl-3,7-dihydroxyphenoxazine produced resorufin, which is a highly fluorescent compound (Zhout and Panchuk-Voloshina. Analytical Biochemistry 253 (1997) 169-174; Amplex® Red Hydrogen Peroxide/peroxidise Assay kit, Invitrogen A22188). Enzyme and compounds in 50 mM sodium phosphate, pH 7.4 were set to pre-incubate in flat-bottomed microtiter plates for approximately 15 minutes before initiating the reaction by addition of a mixture of HRP, benzylamine and Amplex reagent. Benzylamine concentration was fixed at a concentration corresponding to the Michaelis constant, determined using standard procedures. Fluorescence intensity was then measured at several time points during 1-2 hours, exciting at 544 nm and reading the emission at 590 nm. For the human SSAO assay final concentrations of the reagents in the assay wells were: SSAO enzyme […], benzylamine 100 μM, Amplex reagent 20 μM, HRP 0.1 U/mL and varying concentrations of test compound. The inhibition was measured as % decrease of the signal compared to a control without inhibitor (only diluted DMSO). The background signal from a sample containing no SSAO enzyme was subtracted from all data points. Data was fitted to a four parameter logistic model and IC50 values were calculated using the GraphPad Prism 4 or XLfit 4 programs.
SSAO activity was assayed using 14C-labeled benzylamine and analysed by measuring radioactive benzaldehyde. […] Phase separation occurred instantly and activity was read in a Topcount scintillation counter (Perkin-Elmer). […] Data was analysed as above.
Take `CC(O)c1cn2c(CO)c(-c3ccc(Cl)cc3)nc2s1` (stereo not shown) [Example 106, 1-[6-(4-Chlorophenyl)-5-(hydroxymethyl)imidazo[2,1-b][1,3]thiazol-2-yl]ethanol]: the pIC50 was 7.05.
On to `COc1cccc(-c2nc3cnc(Br)cn3c2CO)c1` [Example 81, [6-Bromo-2-(3-methoxyphenyl)imidazo[1,2-a]pyrazin-3-yl]methanol], for which the pIC50 is 6.61.
For the molecule `OCc1c(-c2ccc(Br)cc2)nc2ccc(C(F)(F)F)cn12` [Example 23, [2-(4-Bromophenyl)-6-(trifluoromethyl)imidazo[1,2-a]pyridin-3-yl]methanol], the pIC50 was 7.06.
In the case of `O=C(c1ccc2nc(-c3ccc(Cl)cc3)c(CO)n2c1)N1CCC(CO)CC1` [Example 62, (1-{[2-(4-Chlorophenyl)-3-(hydroxymethyl)imidazo[1,2-a]pyridin-6-yl]carbonyl}piperidin-4-yl)methanol] it was 6.81.

A word on the pIC50: it is the negative decadic logarithm of the IC50, by convention in mol/L.
